# Measurements as given in ChEMBL document CHEMBL5291721, “A preclinical secondary pharmacology resource illuminates target-adverse drug reaction associations of marketed drugs” (Nat Commun, 2023).
# Experiments:
# Estrogen receptor = biological target: T1, Estrogen receptor (Homo sapiens, UniProt P03372)
# T1 sequence (P03372 whole entry): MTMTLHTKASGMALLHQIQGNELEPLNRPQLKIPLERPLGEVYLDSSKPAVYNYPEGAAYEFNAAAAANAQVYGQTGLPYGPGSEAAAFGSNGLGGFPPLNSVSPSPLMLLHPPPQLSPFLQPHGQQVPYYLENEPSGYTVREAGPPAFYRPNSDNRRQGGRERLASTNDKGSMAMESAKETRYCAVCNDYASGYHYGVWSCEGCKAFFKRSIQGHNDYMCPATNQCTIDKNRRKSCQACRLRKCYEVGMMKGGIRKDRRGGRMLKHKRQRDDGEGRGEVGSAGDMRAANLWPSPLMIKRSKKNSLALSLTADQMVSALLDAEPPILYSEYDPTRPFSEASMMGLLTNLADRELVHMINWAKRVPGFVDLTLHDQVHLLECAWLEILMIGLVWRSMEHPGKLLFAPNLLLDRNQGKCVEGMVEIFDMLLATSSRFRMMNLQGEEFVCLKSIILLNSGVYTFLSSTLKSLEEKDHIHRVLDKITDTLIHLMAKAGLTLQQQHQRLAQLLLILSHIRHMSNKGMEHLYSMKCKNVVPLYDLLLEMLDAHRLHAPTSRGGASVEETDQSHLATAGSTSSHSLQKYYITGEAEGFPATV
# Vasopressin V2 receptor = Vasopressin V2 receptor (Homo sapiens, UniProt P30518)
# [1] = biological target: Growth hormone secretagogue receptor type 1 (Homo sapiens, UniProt Q92847)
# Sequence of Growth hormone secretagogue receptor type 1 (Q92847 whole entry): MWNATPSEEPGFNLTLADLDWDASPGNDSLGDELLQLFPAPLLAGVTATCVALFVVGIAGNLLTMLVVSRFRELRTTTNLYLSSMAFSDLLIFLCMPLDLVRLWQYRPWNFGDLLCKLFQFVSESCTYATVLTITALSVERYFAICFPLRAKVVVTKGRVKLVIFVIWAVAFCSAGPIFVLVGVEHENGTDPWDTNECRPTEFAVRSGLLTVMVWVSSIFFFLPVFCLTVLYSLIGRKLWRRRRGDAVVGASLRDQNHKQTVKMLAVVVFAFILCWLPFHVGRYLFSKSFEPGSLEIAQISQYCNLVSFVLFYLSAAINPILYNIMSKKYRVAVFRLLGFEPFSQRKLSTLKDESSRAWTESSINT
# [2] = biological target: 5-hydroxytryptamine receptor 2A (Homo sapiens, UniProt P28223); format: functional, cell-based
# Sequence of 5-hydroxytryptamine receptor 2A (P28223 whole entry): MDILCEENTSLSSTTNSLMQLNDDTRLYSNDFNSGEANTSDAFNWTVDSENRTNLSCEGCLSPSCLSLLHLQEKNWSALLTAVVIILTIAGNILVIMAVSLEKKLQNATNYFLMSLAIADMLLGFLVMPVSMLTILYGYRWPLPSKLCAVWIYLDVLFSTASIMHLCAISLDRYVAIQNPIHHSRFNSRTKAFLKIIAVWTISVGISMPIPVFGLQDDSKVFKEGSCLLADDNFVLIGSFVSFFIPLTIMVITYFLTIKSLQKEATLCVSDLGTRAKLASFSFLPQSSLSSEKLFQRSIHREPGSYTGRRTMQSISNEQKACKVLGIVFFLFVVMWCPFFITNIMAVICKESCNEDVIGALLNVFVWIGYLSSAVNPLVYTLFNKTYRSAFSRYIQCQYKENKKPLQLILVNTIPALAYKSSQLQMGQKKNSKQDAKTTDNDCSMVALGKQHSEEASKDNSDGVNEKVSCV
# [3] = biological target: T2, Gastrin/cholecystokinin type B receptor (Homo sapiens, UniProt P32239)
# T2 sequence (P32239 whole entry): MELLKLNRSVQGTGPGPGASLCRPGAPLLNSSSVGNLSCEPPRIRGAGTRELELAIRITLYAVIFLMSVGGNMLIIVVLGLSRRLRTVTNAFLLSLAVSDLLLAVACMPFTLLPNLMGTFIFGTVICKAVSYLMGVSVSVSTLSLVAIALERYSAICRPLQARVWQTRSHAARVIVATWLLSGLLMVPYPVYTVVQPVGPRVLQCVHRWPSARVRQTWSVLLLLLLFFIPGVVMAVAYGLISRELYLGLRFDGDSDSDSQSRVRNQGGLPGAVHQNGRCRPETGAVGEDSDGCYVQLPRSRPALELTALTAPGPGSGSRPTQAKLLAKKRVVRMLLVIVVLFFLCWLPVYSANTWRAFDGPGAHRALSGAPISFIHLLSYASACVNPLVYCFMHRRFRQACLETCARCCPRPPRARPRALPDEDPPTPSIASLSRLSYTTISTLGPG
# [4] = biological target: 5-hydroxytryptamine receptor 2B (Homo sapiens, UniProt P41595); format: functional, cell-based
# Sequence of 5-hydroxytryptamine receptor 2B (P41595 whole entry): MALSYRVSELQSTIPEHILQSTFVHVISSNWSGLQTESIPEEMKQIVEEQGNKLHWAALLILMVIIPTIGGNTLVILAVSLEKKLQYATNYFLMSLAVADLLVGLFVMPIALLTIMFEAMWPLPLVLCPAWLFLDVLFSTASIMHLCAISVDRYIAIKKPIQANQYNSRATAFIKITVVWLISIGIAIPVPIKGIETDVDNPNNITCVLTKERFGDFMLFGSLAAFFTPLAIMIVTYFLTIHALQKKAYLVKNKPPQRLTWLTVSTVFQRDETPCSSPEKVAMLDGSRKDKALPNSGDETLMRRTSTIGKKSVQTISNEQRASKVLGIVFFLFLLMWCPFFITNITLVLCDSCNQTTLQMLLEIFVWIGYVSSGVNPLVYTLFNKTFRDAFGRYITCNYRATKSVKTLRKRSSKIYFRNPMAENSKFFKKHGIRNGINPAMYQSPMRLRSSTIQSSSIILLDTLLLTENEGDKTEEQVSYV
# [5] = biological target: T3, Muscarinic acetylcholine receptor M2 (Homo sapiens, UniProt P08172); format: functional, cell-based
# T3 sequence (P08172 whole entry): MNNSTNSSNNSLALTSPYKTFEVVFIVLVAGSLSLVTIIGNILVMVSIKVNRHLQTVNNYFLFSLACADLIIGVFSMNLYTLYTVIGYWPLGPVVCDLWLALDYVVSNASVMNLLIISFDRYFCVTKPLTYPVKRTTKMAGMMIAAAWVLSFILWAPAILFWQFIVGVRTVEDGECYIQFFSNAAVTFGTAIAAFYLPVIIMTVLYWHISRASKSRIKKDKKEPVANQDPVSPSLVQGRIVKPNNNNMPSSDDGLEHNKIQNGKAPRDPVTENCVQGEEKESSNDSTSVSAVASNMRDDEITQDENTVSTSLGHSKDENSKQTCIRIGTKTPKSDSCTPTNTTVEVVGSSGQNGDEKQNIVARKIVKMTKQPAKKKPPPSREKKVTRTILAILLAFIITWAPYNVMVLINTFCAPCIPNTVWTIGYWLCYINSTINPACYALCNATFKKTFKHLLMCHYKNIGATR
# [6] = biological target: T4, Alpha-1A adrenergic receptor (Homo sapiens, UniProt P35348)
# T4 sequence (P35348 whole entry): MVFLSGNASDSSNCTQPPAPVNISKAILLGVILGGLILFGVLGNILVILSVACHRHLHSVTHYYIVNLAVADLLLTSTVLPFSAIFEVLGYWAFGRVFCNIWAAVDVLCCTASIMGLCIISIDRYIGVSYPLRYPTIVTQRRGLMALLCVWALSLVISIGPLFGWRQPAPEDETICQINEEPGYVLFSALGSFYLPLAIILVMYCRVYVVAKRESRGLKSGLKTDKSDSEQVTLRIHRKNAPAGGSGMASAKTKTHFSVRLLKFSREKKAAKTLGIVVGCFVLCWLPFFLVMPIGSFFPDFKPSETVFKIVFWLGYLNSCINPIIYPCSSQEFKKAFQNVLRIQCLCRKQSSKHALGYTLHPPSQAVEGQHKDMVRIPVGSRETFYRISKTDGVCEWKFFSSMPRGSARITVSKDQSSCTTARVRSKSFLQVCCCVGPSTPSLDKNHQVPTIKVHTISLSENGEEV
# [7] = biological target: Neuronal acetylcholine receptor subunit alpha-4 (Homo sapiens, UniProt P43681)
# Sequence of Neuronal acetylcholine receptor subunit alpha-4 (P43681 whole entry): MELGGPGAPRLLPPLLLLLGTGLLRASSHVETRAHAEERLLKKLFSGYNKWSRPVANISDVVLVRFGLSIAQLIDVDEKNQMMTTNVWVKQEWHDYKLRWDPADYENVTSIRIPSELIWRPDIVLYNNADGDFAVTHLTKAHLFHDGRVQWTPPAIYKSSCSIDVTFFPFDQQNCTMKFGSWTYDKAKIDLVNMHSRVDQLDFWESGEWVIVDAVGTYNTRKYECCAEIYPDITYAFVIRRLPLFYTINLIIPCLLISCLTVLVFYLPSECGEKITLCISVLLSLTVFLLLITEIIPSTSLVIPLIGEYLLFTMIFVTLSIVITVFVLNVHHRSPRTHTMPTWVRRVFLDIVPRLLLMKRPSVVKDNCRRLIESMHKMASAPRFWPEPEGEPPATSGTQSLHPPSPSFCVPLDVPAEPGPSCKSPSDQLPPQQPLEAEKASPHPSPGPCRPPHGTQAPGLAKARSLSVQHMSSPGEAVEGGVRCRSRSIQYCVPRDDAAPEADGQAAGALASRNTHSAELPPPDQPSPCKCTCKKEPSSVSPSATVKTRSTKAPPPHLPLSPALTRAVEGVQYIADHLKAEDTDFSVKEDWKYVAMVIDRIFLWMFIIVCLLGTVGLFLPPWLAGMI
# [8] = biological target: T5, Prostaglandin G/H synthase 1 (Rattus norvegicus, UniProt Q63921); format: functional
# T5 sequence (Q63921 whole entry): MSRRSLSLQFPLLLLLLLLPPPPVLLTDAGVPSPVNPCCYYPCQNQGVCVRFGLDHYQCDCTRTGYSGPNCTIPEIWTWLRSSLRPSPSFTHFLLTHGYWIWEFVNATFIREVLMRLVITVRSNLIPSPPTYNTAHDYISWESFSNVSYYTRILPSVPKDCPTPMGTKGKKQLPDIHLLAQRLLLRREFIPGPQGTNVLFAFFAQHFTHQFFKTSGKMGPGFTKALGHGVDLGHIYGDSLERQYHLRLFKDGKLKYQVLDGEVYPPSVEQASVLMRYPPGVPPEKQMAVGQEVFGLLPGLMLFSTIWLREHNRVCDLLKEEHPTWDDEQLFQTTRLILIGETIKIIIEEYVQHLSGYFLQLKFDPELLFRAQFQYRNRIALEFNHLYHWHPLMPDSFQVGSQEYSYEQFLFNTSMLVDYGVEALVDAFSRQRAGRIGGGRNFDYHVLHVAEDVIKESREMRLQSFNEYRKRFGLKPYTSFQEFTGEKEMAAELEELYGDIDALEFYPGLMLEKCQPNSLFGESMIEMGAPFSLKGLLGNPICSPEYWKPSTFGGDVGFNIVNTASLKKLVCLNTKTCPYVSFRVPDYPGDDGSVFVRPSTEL
# [9] = biological target: Glutamate receptor ionotropic, NMDA 1 (Rattus norvegicus, UniProt P35439)
# Also: assay procedure not described here.
Molecule,AC50 (Estrogen receptor),AC50 (Vasopressin V2 receptor),AC50 [1],AC50 [2],AC50 [3],AC50 [4],AC50 [5],AC50 [6],AC50 [7],AC50 [8],AC50 [9]
CN(C)c1ccc(C(=C2C=CC(=[N+](C)C)C=C2)c2ccc(N(C)C)cc2)cc1 [GENTIAN VIOLET],> 30 µM,,,,,,,,,,
HYDROXOCOBALAMIN,,> 30 µM,> 30 µM,> 30 µM,> 30 µM,> 30 µM,> 30 µM,> 30 µM,> 30 µM,0.003 µM,> 30 µM
